# Assay results taken from US20200171117A1, “DRY EYE BOTANICALS” (ACCESS BUSINESS GROUP INTERNATIONAL LLC, priority 2018, published 2020).
# Values joined by “and” are separate entries in the source; they are usually repeats but may differ in a detail not shown here. Identical values can stand only once.
# How the values were obtained:
# [1] = tested on: HMGEC (immortalized human meibomian gland epithelial cells); assay: PPARγ-mediated lipid synthesis activity in HMGECs (LipidTox Green neutral lipid staining); format: cell-based; conditions: for Effect on lipid synthesis (in words): compared with Rosi
# Experimental: Extracts of loquat and ginger identified in Example 1 are tested for their effect on lipid synthesis and PPARγ receptor activation using HMGECs. In particular, HMGECs are plated on collagen coated glass cover slips and treated with samples of each extract (varying concentrations in Media 1 with 0.1% DMSO), positive control (Rosi, 30 μM in Media 1 with 0.1% DMSO), and negative control (Media 1 with 0.1% DMSO) and incubated for 6 days. The treated cells are then fixed, stained with LipidTox Green, and the area of neutral lipid staining quantified.
# [2] = tested on: PPARγ response genes ADFP, ELOVL4, and ANGPTL4; assay: Real-time PCR of PPARγ response gene expression; format: cell-based; conditions: FIGS. 1-4
# Experimental: Loquat Extract #1 (“538”), and known phytochemical components thereof (oleanolic acid (“OA”); ursolic acid (“UA”)), are analyzed by real-time PCR (BioRad CFX96 Thermal Cycler, Hercules, Calif. (or equivalent)), to assess sample-induced expression of the PPARγ response genes ADFP, ELOVL4, and ANGPTL4 via mRNA quantification. In particular, samples are prepared and analyzed according to the procedure set forth in Jester et. al., “PPARγ regulates mouse meibocyte differentiation and lipid synthesis,” The Ocular Surface 14.4 (2016): 484-494, the disclosure of which is herein incorporated by […]. The results of the quantification are shown in FIGS. 1-4, where the vertical (Y) axis of each plot corresponds to the fold change in response observed.
# To assess the effects on gene expression mediation via PPARγ signaling, a PPARγ-specific antagonist (T0070907; (“T”)) is added to inhibit PPARγ signaling. […] As such, Loquat leaf is shown to have specific and synergistic PPARγ agonist activity that may be unrelated to individual phytochemical components thereof.
Compound,Effect on lipid synthesis (in words) [1],"PPARγ response gene expression (mRNA of ADFP, ELOVL4, ANGPTL4; PPARγ), fold change, in words [2]","% Lipid Mean (percent positive control, Rosi set at 100%) ([1]; 30 μM, 6 days)","Nuclei Mean ([1]; 30 μM, 6 days)"
CC1(C)CC[C@]2(C(=O)O)CC[C@]3(C)C(=CC[C@@H]4[C@@]5(C)CC[C@H](O)C(C)(C)[C@@H]5CC[C@]43C)[C@@H]2C1 [oleanolic acid],no individual effects,no individual effects,–,–
C[C@H]1[C@H](C)CC[C@]2(C(=O)O)CC[C@]3(C)C(=CC[C@@H]4[C@@]5(C)CC[C@H](O)C(C)(C)[C@@H]5CC[C@]43C)[C@H]12 [ursolic acid],no individual effects,no individual effects,–,–
"CN(CCOc1ccc(CC2SC(=O)NC2=O)cc1)c1ccccn1 (stereo not drawn) [Rosi, Rosiglitazone]",–,–,97.5% and 100%,1622.13 and 1070
